Results: US20140155445A1, “Compounds and Methods for Treating Cancer and Diseases of the Central Nervous System” (Osta Biotechnologies Inc., priority 2007, published 2014)
Entries after “also recorded” stand apart in the source; their conditions may differ.

Experiments:
APPswe/PS1dE9 mice = test: Behavioral studies (maze, fear conditioning) in APPswe/PS1dE9 mice; type: in vivo, mouse
Procedure: The experiments were performed at Pennington Biomedical Research Centre (PBRC) of Lousiana State University, Baton Rouge, Lousiana and were approved by the Institutional Animal Care and Use Committee (IACUC) of PBRC.
The APPswe/PS1dE9 mice were generated against a C57/BL6J background by breeding either +/+ males or females with −/− females or males, respectively.
Memantine (10 mg/kg) and both doses of QC-199 (15 mg/kg & 30 mg/kg) were prepared in batches and frozen for later use. Each compound was weighed and dissolved in injectable sterile saline solution. Memantine was prepared at a concentration of 1 mg/ml, the 15 mg/kg dose of QC-199 at a volume of 15 mg/10 ml, and the 30 mg/kg dose of QC-199 at a volume of 30 mg/10 ml. The compounds were prepared in this volume so that the mice could easily be injected based on their body weight, e.g., a 35 gram mouse was injected with 0.35 ml dosing solution.
Memantine and QC-199 dosing solutions were administered to mice via i.p. injections. The mice were weighed 3 times/week and were injected with a volume that matched their body weight. The mice were injected daily and the injection located was alternated each day to avoid potential complications from injection in the same location on a daily basis.
After reaching their respective treatment duration, the wild type and APP/PS1 double transgenic mice were run through the STM and fear conditioning. The STM consisted of one day of straight run training (running down an alley from the start box to the goal box). This phase was implemented to establish the contingency that moving forward would provide escape into the dark and dry goal box. The mice were required to reach a criterion of completing the straight run in 15 sec or less on 7 out of 9 trials over a maximum of 15 trials. […] The following day each mouse was administered 15 trials in the STM with approximately 7-10 min between each trial where they were placed into a holding cage with a towel. The latency to reach the goal box and the number of errors committed were the dependent measures of learning. However, in our experience, errors committed is much more indicative of learning and is reported for this project. Pictures of the straight run (A) and maze (B) are shown in FIG. 42, along with a schematic (C) of the maze indicating the correct path. The data from the maze was collapsed into blocks of 5 trials for data summary and presentation.
Med Associates Inc.'s MED-VFC-NIR-M NIR Video Fear Conditioning System for Mouse, Pavlovian fear conditioning was conducted after the STM. On Day 1 the mice were placed in Context 1 and given 5 tone+shock pairings. On day 2 the mice were placed back into Context 1 and their freezing response to being placed back into the original context where fear conditioning occurred was measured. Freezing is operationally defined as the cessation of all movement except that required for respiration. Freezing was measured over 10 minutes, and data were summarized in 1-min intervals. On day 3 the mice were placed into a novel context (Context 2) for 10 min. […] For the final 5 min, the tone paired with shock during fear conditioning was presented. Again, the data was summarized in 1-min intervals.
Maze data was analyzed by two-way ANOVAs to determine treatment group effects for both errors and run time after the data was collapsed into three 5 trial blocks. Planned comparisons of transgenic mice treated with saline with each of the drug treatments, memantine or QC-199 at 15 mg/kg/day and 30 mg/kg/day were conducted to evaluate group differences in the maze at each trial block and both tone and contextual fear conditioning tests. The critical a level was set at 0.05 for all statistical tests. The values in FIGS. 46A-46C represent the means±S.E.M. The data was analyzed using the SPSS statistical program version 11.0. […]

HO-1 (rat spleen) = biological target: T1, HO-1 (rat spleen) (Rattus norvegicus, UniProt P06762); test: HO enzymatic activity in rat spleen microsomal fraction (CO formed from methemalbumin, gas chromatography); type: biochemical; settings: rat spleen microsomes; average ± standard deviation of replicate experiments; read-out: IC50 HO-1 (rat spleen)/μM
T1 construct: Spleen microsomes were used as a source of HO-1; from tissue; host or cells: spleen microsomal fraction of adult male Sprague-Dawley rats
T1 sequence (P06762 1-289): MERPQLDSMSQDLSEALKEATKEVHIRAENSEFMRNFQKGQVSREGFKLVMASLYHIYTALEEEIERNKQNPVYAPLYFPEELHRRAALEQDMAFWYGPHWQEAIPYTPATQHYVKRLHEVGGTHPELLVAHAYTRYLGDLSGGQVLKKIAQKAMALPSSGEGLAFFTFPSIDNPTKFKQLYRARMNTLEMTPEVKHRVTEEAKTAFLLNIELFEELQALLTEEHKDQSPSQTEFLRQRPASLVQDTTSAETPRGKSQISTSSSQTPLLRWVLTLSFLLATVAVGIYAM

[1] = tested on: human pancreatic tumor cells; test: Cell proliferation, [3H]thymidine incorporation, human pancreatic tumor cells; type: cell-based; settings: 6.5 μM, 18 h

SMILES | effect on maze errors and contextual fear conditioning (summary) (APPswe/PS1dE9 mice; Memantine, QC-199 15 mg/kg and 30 mg/kg, dtg mice) | maze errors vs saline-treated APP/PS1 mice (APPswe/PS1dE9 mice; QC-199 30 mg/kg/day i.p., trend at Trial Block 3 (p=0.052)) | contextual fear conditioning (freezing) vs saline-treated APP/PS1 mice (APPswe/PS1dE9 mice; QC-199 15 and 30 mg/kg/day, Memantine 10 mg/kg, Time Blocks 1-4) | IC50 (HO-1 (rat spleen)) | effect of hHO-1 transfection on 3H-thymidine incorporation ([1]; hHO-1-transfected human pancreatic tumor cells) | 3H-thymidine incorporation vs untreated cells ([1]; non-transfected human pancreatic tumor cells, hydrochloride)
Brc1ccc(CCCCn2ccnc2)cc1.Cl [QC-199, 1-[4-(4-bromophenyl)butyl]-1H-imidazole hydrochloride] | positive effect | did not exhibit improved performance at any of the Trial Blocks | none reached significance | – | – | –
Brc1ccc(CCC2(Cn3ccnc3)OCCO2)cc1.Cl [QC-56, 1-((2-(2-(4-Bromophenyl)ethyl)-1,3-dioxolan-2-yl)methyl)-1H-imidazole hydrochloride] | – | – | – | 1.9 ± 0.2 µM | significantly attenuated | significantly attenuated; also recorded: marked reduction
